One test has as its system MCF7. The test is described as follows: Antiproliferative activity against human MCF7 cells assessed as inhibition of cell proliferation measured after 72 hrs by CCK8 assay. The format is functional, cell-based. The note with it: MCF7, 72 h.
The subject of a further test is MDA-MB-231. The test can be described thus: Antiproliferative activity against human MDA-MB-231 cells assessed as inhibition of cell proliferation measured after 72 hrs by CCK8 assay. The note with it: MDA-MB-231, 72 h. The format is functional, cell-based. A general note: Formazan colour is commonly taken as a measure of viable cells.
Test [1] relates to HCT-116. The test can be described thus: Induction of cell cycle arrest in human HCT-116 cells assessed as accumulation of cells at G2/M phase at 10 nM incubated for 24 hrs by RNase A/propidium iodide staining based flow cytometric analysis (reference value: 4.05 %). The format is functional.
Test [2] has as its system HCT-116. The test is described as follows: Induction of cell cycle arrest in human HCT-116 cells assessed as accumulation of cells at S phase at 10 nM incubated for 24 hrs by RNase A/propidium iodide staining based flow cytometric analysis (reference value: 2.84 %). The format is functional. (A flow cytometer gives signals particle by particle.)
Test [3] addresses T1, Kinesin-like protein KIF11 (Homo sapiens, UniProt P52732).
T1 sequence (P52732 whole entry): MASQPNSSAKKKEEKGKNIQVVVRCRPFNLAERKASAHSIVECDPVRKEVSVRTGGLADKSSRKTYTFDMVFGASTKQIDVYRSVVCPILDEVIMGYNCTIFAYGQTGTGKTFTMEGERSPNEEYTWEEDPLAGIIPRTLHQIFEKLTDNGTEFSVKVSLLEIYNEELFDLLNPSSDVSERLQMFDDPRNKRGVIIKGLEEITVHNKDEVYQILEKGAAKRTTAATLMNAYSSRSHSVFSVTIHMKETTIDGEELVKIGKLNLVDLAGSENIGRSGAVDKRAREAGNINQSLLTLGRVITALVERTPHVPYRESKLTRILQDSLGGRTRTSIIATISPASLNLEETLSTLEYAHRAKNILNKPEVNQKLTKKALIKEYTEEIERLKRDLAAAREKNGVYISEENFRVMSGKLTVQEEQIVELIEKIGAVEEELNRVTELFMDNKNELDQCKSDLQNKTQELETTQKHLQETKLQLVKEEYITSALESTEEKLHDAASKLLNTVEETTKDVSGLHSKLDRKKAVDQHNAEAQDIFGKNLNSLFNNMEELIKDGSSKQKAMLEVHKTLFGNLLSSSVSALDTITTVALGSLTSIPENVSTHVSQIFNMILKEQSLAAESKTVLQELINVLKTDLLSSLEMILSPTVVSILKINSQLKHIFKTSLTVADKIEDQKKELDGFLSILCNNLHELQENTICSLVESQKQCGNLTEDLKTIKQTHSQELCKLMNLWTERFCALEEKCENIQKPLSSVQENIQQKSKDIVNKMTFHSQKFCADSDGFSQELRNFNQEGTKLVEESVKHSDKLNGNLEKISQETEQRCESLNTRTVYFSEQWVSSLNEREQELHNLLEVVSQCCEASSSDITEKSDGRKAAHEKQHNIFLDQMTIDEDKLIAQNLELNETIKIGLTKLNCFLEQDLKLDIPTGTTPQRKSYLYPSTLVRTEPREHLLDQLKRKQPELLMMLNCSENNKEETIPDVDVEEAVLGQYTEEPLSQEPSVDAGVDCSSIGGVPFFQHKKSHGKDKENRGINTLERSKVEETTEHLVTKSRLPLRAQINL
The test is described as follows: Inhibition of KSP (unknown origin) ATPase activity preincubated for 30 mins followed by ATP addition and measured after 15 mins by Kinase-Glo Plus reagent based luminescence analysis. In general terms: Kinase-Glo measures the ATP left after a reaction by luminescence.

The target in test [4] is Protein cereblon/Kinesin-like protein KIF11 (Homo sapiens, UniProt P52732+Q96SW2). The test can be described thus: PROTAC activity at CRBN/KSP in human HCT-116 cells assessed as induction of KSP degradation at 500 nM incubated for 48 hrs by Western blot analysis relative to control. The format is cell-based.
In test [5] the test system is HCT-116. The test can be described thus: Induction of apoptosis in human HCT-116 cells assessed as necrotic cells at 100 nM incubated for 48 hrs by Annexin V-FITC/PI staining based flow cytometry analysis (reference value: 1.31 %). The format is functional.
The test system of test [6] is HCT-116. The test is described as follows: Induction of apoptosis in human HCT-116 cells assessed as late apoptotic cells at 100 nM incubated for 48 hrs by Annexin V-FITC/PI staining based flow cytometry analysis (reference value: 1.36 %). The format is functional.
Test [7] relates to HCT-116. The test is described as follows: Induction of apoptosis in human HCT-116 cells assessed as early apoptotic cells at 100 nM incubated for 48 hrs by Annexin V-FITC/PI staining based flow cytometry analysis (reference value: 3.02 %). The format is functional.
In test [8] the test system is HCT-116. The test can be described thus: Induction of apoptosis in human HCT-116 cells assessed as viable cells at 100 nM incubated for 48 hrs by Annexin V-FITC/PI staining based flow cytometry analysis (reference value: 94.31 %). The note with it: read-out: Activity. The format is functional.
Test [9] concerns HCT-116. The test is described as follows: Antiproliferative activity against human HCT-116 cells assessed as inhibition of cell proliferation measured after 72 hrs by CCK8 assay. The note with it: HCT-116, 72 h. The format is functional, cell-based.
Another test has as its system A549. The test is described as follows: Antiproliferative activity against human A549 cells assessed as inhibition of cell proliferation measured after 72 hrs by CCK8 assay. The format is functional, cell-based. The note with it: A549, 72 h.
Test [10] relates to HCT-116. The test can be described thus: Induction of cell cycle arrest in human HCT-116 cells assessed as accumulation of cells at G1 phase at 10 nM incubated for 24 hrs by RNase A/propidium iodide staining based flow cytometric analysis (reference value: 93.11 %). The format is functional.

Protein cereblon/Kinesin-like protein KIF11, sequence (Q96SW2 whole entry, looked up, one chain of several): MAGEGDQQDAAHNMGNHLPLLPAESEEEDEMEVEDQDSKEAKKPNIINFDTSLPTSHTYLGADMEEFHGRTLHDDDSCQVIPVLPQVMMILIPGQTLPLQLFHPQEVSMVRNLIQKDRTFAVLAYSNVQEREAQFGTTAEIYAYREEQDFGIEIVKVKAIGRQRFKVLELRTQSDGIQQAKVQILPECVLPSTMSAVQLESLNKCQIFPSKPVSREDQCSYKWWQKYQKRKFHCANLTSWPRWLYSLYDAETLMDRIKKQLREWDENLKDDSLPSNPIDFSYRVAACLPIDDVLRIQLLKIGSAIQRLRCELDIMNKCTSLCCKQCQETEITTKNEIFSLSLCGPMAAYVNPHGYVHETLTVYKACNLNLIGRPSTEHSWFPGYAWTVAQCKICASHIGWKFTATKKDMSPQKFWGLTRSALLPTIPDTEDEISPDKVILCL

Regarding `COc1ccc(C2(SC[C@H](N)C(=O)O)c3ccccc3C=Cc3ccccc32)cc1`, the IC50 (in general, the concentration that gives 50% inhibition) with MCF7 is 17.5 nM; with MDA-MB-231 it was 12.1 nM; in [3], 27.6 nM; with HCT-116 [9], 8.5 nM; with A549, 262 nM. The Activity with HCT-116 [1] amounted to 21.03%; in the test with HCT-116 [2], 12.07%; in test [4], 0%; in the test with HCT-116 [5] it was 14.06%; in the test with HCT-116 [6] it was 23.79%; with HCT-116 [7] it was 31.49%. Further, in the test with HCT-116 [10], the Activity is given as 66.9%. In the test on HCT-116 [8], the viability at 0.1 µM was found to be 30.7%.
